Reference: US20060019883A1, “Use of cyclin D1 inhibitors” (priority 2003, published 2006)
“Also recorded” adds a separate entry of the source.

Test system: ER-positive breast cancer
Test: Randomised clinical trial: 2 years of tamoxifen treatment or no adjuvant treatment, breast cancer specific survival in relation to cyclin D1
Assay type: in vivo, patients
Conditions: for Median survival time of deceased patients / Mortality rate: tumours with >90% ER positive cells
Text: The breast cancer material used in this study initially included 168 post-menopausal (>55 years old) patients with small (T0-T1) node-negative (N0) tumours. […] Data regarding breast cancer specific survival was obtained from the Swedish Cancer Registry (2002) resulting in a mean follow-up time of 18 years (range 15-22 years). Representative parts of the tumours were assembled in a tissue array, sectioned and immunohistochemically stained for ER (antibodies M7047 from Dako, Denmark, diluted 1/200) and cyclin D1 (M7155, Dako, Denmark, 1/100). […] The alternative model is that cyclin D1 could sequester cdk-inhibitors thereby effecting the G1/S control and tamoxifen response.
E: Cumulative total survival in the patient group of cyclin D1 high breast cancer subdivided according to tamoxifen treatment or nor treatment.

[1] = High CD1 and tamoxifen treatment
[2] = Moderate/low CD1 and tamoxifen treatment

CC/C(=C(\c1ccccc1)c1ccc(OCCN(C)C)cc1)c1ccccc1 [tamoxifen]
Difference in survival for tamoxifen in comparison to no treatment (102 tumours with >90% ER positive cells): marked difference in survival
Median survival time of deceased patients [1]: 47 months*
Mortality rate [1]: 39%
Median survival time of deceased patients [2]: 169 months
Mortality rate [2]: 63%
Difference in survival for tamoxifen in comparison to no treatment (tumours lacking or expressing low ER and tumours with 10-90% ER positive cells): did not show any significant difference in survival
Difference in survival between tamoxifen and no treatment (tumours with high cyclin D1): this difference was eliminated; also recorded: little or no effect
